Reference: patent US20230295201A1 (Gilead Sciences, Inc., priority 2020, published 2023)
pEC50: −log10 of the molar value. Read-outs that look alike come from different tables or passages of the source.

Assays:
Type in all cases: cell-based
RSV A2 = assay: RSV NHBE EC50 (RSV A2 antiviral assay in normal human bronchial epithelial cells); conditions: NHBE cells, RSV A2, 4 days, read-out: RSV NHBE EC50
RSV strain A2 = assay: RSV HEp-2 EC50 (infectious cytopathic cell protection assay); conditions: HEp-2 cells, RSV A2, 4 days, read-out: RSV HEp-2 EC50
Summary of the method: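 Percent inhibition of RSV-induced cytopathic effect came from remaining cell viability (CellTiter-Glo luminescence) after 4 days at 37° C. Compounds in 3-fold serial dilutions were exposed to an infectious mix of titered A2 virus and HEp-2 cells at 50,000/ml, with 0% and 100% inhibition control standards.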

DENV2 replicon = assay: DENV-2 Huh-7 Rep EC50 (replicon luminescence); conditions: Huh-7 replicon cells, 48 hours, read-out: DENV-2 Huh-7 Rep EC50
Summary of the method: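 EC50 derived from luminescence dose-response, normalised to DMSO-only 0% inhibition wells, after 1.5 h with EnduRen substrate. Compounds were first exposed for 48 h at 37° C to DENV2 replicon Huh-7 cells (5,000/well).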

HRV16 = HRV16 HELA EC50 (cytopathic effect in H1-HeLa cells)
Summary of the method: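 Read-out is luminescent cell viability (CellTiter-Glo) after 96 h of infection at 33 °C, scaled between uninfected and infected-untreated wells. Before infection with titrated virus, compounds went onto H1-HeLa cells as triplicate 3-fold dilution series.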

[1] = human respiratory syncytial virus, NHBE, 96 h
[2] = human respiratory syncytial virus, HEp-2, 96 h
[3] = Dengue virus, DENV2, Huh-7, 48 h
[4] = H1-HeLa cells, 96 h, 33° C.; read-out: HRV16 HELA EC50
[5] = 96 h, H1-HeLa cells, 33° C., read-out: HRV16 HELA EC50

C[C@@H](NP(=O)(OC[C@@]1(C#N)O[C@@H](c2ccc3c(N)ncnn23)[C@H](O)[C@@H]1O)Oc1ccccc1)C(=O)O[C@H]1CC[C@H](C(F)(F)F)CC1 (single isomer, unassigned) [Example 195]
pEC50 (RSV A2; [1]): 6.17
pEC50 (RSV strain A2; [2]): 5.59
pEC50 (DENV2 replicon; [3]): < 4.00
pEC50 (HRV16; [4]): 5.59

C[C@H](NP(=O)(OC[C@@]1(C#N)O[C@@H](c2ccc3c(N)ncnn23)[C@H](O)[C@@H]1O)Oc1ccccc1)C(=O)O[C@H]1CCCC[C@@H]1C (mixture of isomers) [Example 155, trans-2-methylcyclohexyl ((((2R,3S,4R,5S)-5-(4-aminopyrrolo[2,1-f][1,2,4]triazin-7-yl)-2-cyano-3,4-dihydroxytetrahydrofuran-2-yl)methoxy)(phenoxy)phosphoryl)-L-alaninate]
pEC50 (RSV A2; [1]): 5.80
pEC50 (RSV strain A2; [2]): 5.36
pEC50 (DENV2 replicon; [3]): 4.07
pEC50 (HRV16; [5]): 5.38

CC(C)OC(=O)[C@H](Cc1ccccc1)NP(=O)(OC[C@@]1(C#N)O[C@@H](c2ccc3c(N)ncnn23)[C@H](O)[C@@H]1O)Oc1ccccc1 (stereo partly drawn) [Example 80, (2S)-isopropyl 2-(((((2R,3S,4R,5S)-5-(4-aminopyrrolo[2,1-f][1,2,4]triazin-7-yl)-2-cyano-3,4-dihydroxytetrahydrofuran-2-yl)methoxy)(phenoxy)phosphoryl)amino)-3-phenylpropanoate]
pEC50 (RSV A2; [1]): 5.33
pEC50 (RSV strain A2; [2]): 5.42
pEC50 (DENV2 replicon; [3]): < 4.30
pEC50 (HRV16; [5]): 5.05

CC(C)[C@H](N)C(=O)Nc1ncnn2c([C@@H]3O[C@](C#N)(CO[P@@](=O)(N[C@@H](C)C(=O)OC4CCCCC4)Oc4ccccc4)[C@@H](O)[C@H]3O)ccc12 [Example 237, cyclohexyl ((S)-(((2R,3S,4R,5S)-5-(4-((S)-2-amino-3-methylbutanamido)pyrrolo[2,1-f][1,2,4]triazin-7-yl)-2-cyano-3,4-dihydroxytetrahydrofuran-2-yl)methoxy)(phenoxy)phosphoryl)-L-alaninate]
pEC50 (RSV A2; [1]): < 4.97
pEC50 (RSV strain A2; [2]): < 4.42
pEC50 (DENV2 replicon; [3]): < 4.30
pEC50 (HRV16; [5]): < 4.30

N#C[C@]1(COP(=O)(NC2(C(=O)OC3CCCCC3)CCC2)Oc2ccccc2)O[C@@H](c2ccc3c(N)ncnn23)[C@H](O)[C@@H]1O (stereo partly drawn) [Example 107, cyclohexyl 1-(((((2R,3S,4R,5S)-5-(4-aminopyrrolo[2,1-f][1,2,4]triazin-7-yl)-2-cyano-3,4-dihydroxytetrahydrofuran-2-yl)methoxy)(phenoxy)phosphoryl)amino)cyclobutanecarboxylate]
pEC50 (RSV A2; [1]): < 5.54
pEC50 (RSV strain A2; [2]): < 4.85
pEC50 (DENV2 replicon; [3]): < 4.30
pEC50 (HRV16; [5]): < 4.45

CC(C)OC(=O)[C@@H](C)NP(=O)(OC[C@@]1(C#N)O[C@@H](c2ccc3c(N)ncnn23)[C@H](O)[C@@H]1O)Oc1ccccc1 (stereo partly drawn) [Example 86, (2R)-isopropyl 2-(((((2R,3S,4R,5S)-5-(4-aminopyrrolo[2,1-f][1,2,4]triazin-7-yl)-2-cyano-3,4-dihydroxytetrahydrofuran-2-yl)methoxy)(phenoxy)phosphoryl)amino)propanoate]
pEC50 (RSV A2; [1]): < 5.30
pEC50 (RSV strain A2; [2]): 4.65
pEC50 (DENV2 replicon; [3]): < 4.30
pEC50 (HRV16; [5]): < 4.30

CC(C)OC(=O)[C@H](C)N[P@](=O)(OC[C@@]1(C#N)O[C@@H](c2ccc3c(NC(=O)C(C)C)ncnn23)[C@H](O)[C@@H]1O)Oc1ccccc1 [Example 234, isopropyl ((S)-(((2R,3S,4R,5S)-2-cyano-3,4-dihydroxy-5-(4-isobutyramidopyrrolo[2,1-f][1,2,4]triazin-7-yl)tetrahydrofuran-2-yl)methoxy)(phenoxy)phosphoryl)-L-alaninate]
pEC50 (RSV A2; [1]): 5.62
pEC50 (RSV strain A2; [2]): 6.16
pEC50 (DENV2 replicon; [3]): 4.44
pEC50 (HRV16; [5]): 5.16

CCCOC(=O)[C@H](C)N[P@](=O)(OC[C@@]1(C#N)O[C@@H](c2ccc3c(N)ncnn23)[C@H](O)[C@@H]1O)Oc1ccccc1 [Example 45, propyl ((S)-(((2R,3S,4R,5S)-5-(4-aminopyrrolo[2,1-f][1,2,4]triazin-7-yl)-2-cyano-3,4-dihydroxytetrahydrofuran-2-yl)methoxy)(phenoxy)phosphoryl)-L-alaninate]
pEC50 (RSV A2; [1]): 6.61
pEC50 (RSV strain A2; [2]): 7.26
pEC50 (DENV2 replicon; [3]): 5.02
pEC50 (HRV16; [5]): 6.43

CC(C)[C@H](NP(=O)(OC[C@@]1(C#N)O[C@@H](c2ccc3c(N)ncnn23)[C@H](O)[C@@H]1O)Oc1ccccc1)C(=O)OC1CCCCC1 (stereo partly drawn) [Example 98, cyclohexyl ((((2R,3S,4R,5S)-5-(4-aminopyrrolo[2,1-f][1,2,4]triazin-7-yl)-2-cyano-3,4-dihydroxytetrahydrofuran-2-yl)methoxy)(phenoxy)phosphoryl)-L-valinate]
pEC50 (RSV A2; [1]): < 5.30
pEC50 (RSV strain A2; [2]): < 4.30
pEC50 (DENV2 replicon; [3]): < 4.30
pEC50 (HRV16; [5]): < 4.30

CCCCCCCCCCCCCCCCCCOC(=O)[C@H](C)NP(=O)(OC[C@@]1(C#N)O[C@@H](c2ccc3c(N)ncnn23)[C@H](O)[C@@H]1O)Oc1ccccc1 (stereo partly drawn) [Example 193, octadecyl ((((2R,3S,4R,5S)-5-(4-aminopyrrolo[2,1-f][1,2,4]triazin-7-yl)-2-cyano-3,4-dihydroxytetrahydrofuran-2-yl)methoxy)(phenoxy)phosphoryl)-L-alaninate]
pEC50 (RSV A2; [1]): 6.33
pEC50 (RSV strain A2; [2]): 6.61
pEC50 (DENV2 replicon; [3]): < 4.30
pEC50 (HRV16; [5]): 6.12

CCCCCCCCCCCCCCCCOCCCOC(=O)[C@H](C)NP(=O)(OC[C@@]1(C#N)O[C@@H](c2ccc3c(N)ncnn23)[C@H](O)[C@@H]1O)Oc1ccccc1 (stereo partly drawn) [Example 198, 3-(hexadecyloxy)propyl ((((2R,3S,4R,5S)-5-(4-aminopyrrolo[2,1-f][1,2,4]triazin-7-yl)-2-cyano-3,4-dihydroxytetrahydrofuran-2-yl)methoxy)(phenoxy)phosphoryl)alaninate]
pEC50 (RSV A2; [1]): 7.43
pEC50 (RSV strain A2; [2]): 6.21
pEC50 (DENV2 replicon; [3]): 4.41
pEC50 (HRV16; [5]): 6.26

C[C@H](NP(=O)(OC[C@@]1(C#N)O[C@@H](c2ccc3c(N)ncnn23)[C@H](O)[C@@H]1O)Oc1ccccc1)C(=O)OC1CCOC(C)(C)C1 (stereo partly drawn) [Example 156, 2,2-dimethyltetrahydro-2H-pyran-4-yl ((((2R,3S,4R,5S)-5-(4-aminopyrrolo[2,1-f][1,2,4]triazin-7-yl)-2-cyano-3,4-dihydroxytetrahydrofuran-2-yl)methoxy)(phenoxy)phosphoryl)alaninate]
pEC50 (RSV A2; [1]): 5.86
pEC50 (RSV strain A2; [2]): 5.05
pEC50 (DENV2 replicon; [3]): < 4.00
pEC50 (HRV16; [5]): 4.59

CCCCCOC(=O)C[C@H](N[P@](=O)(OC[C@@]1(C#N)O[C@@H](c2ccc3c(N)ncnn23)[C@H](O)[C@@H]1O)Oc1ccccc1)C(=O)OCCCCC [Example 217]
pEC50 (RSV A2): < 5.45
pEC50 (RSV strain A2): 6.00
pEC50 (DENV2 replicon): 4.42
pEC50 (HRV16; [4]): 5.33

CCOC(=O)[C@H](CCCCNC(C)=O)NP(=O)(OC[C@@]1(C#N)O[C@@H](c2ccc3c(N)ncnn23)[C@H](O)[C@@H]1O)Oc1ccccc1 (mixture of isomers) [Example 85, (2S)-ethyl 6-acetamido-2-(((((2R,3S,4R,5S)-5-(4-aminopyrrolo[2,1-f][1,2,4]triazin-7-yl)-2-cyano-3,4-dihydroxytetrahydrofuran-2-yl)methoxy)(phenoxy)phosphoryl)amino)hexanoate]
pEC50 (RSV A2; [1]): < 5.30
pEC50 (RSV strain A2; [2]): < 4.33
pEC50 (DENV2 replicon; [3]): < 4.30
pEC50 (HRV16; [5]): < 4.30

C[C@H](NP(=O)(OC[C@@]1(C#N)O[C@@H](c2ccc3c(N)ncnn23)[C@H](O)[C@@H]1O)Oc1ccccc1)C(=O)OC1CCC1 (stereo partly drawn) [Example 118, (2S)-cyclobutyl 2-(((((2R,3S,4R,5S)-5-(4-aminopyrrolo[2,1-f][1,2,4]triazin-7-yl)-2-cyano-3,4-dihydroxytetrahydrofuran-2-yl)methoxy)(phenoxy)phosphoryl)amino)propanoate]
pEC50 (RSV A2; [1]): 6.50
pEC50 (RSV strain A2; [2]): 6.67
pEC50 (DENV2 replicon; [3]): 4.57
pEC50 (HRV16; [5]): 6.37

Cc1oc(=O)oc1COC(=O)C1(NP(=O)(OC[C@@]2(C#N)O[C@@H](c3ccc4c(N)ncnn34)[C@H](O)[C@@H]2O)Oc2ccccc2)CCC1 (stereo partly drawn) [Example 125, (5-methyl-2-oxo-1,3-dioxol-4-yl)methyl 1-(((((2R,3S,4R,5S)-5-(4-aminopyrrolo[2,1-f][1,2,4]triazin-7-yl)-2-cyano-3,4-dihydroxytetrahydrofuran-2-yl)methoxy)(phenoxy)phosphoryl)amino)cyclobutane-1-carboxylate]
pEC50 (RSV A2; [1]): 5.44
pEC50 (RSV strain A2; [2]): 5.48
pEC50 (DENV2 replicon; [3]): < 4.00
pEC50 (HRV16; [5]): 5.12

COC(C)(C)COC(=O)[C@H](C)NP(=O)(OC[C@@]1(C#N)O[C@@H](c2ccc3c(N)ncnn23)[C@H](O)[C@@H]1O)Oc1ccccc1 (stereo partly drawn) [Example 164, 2-methoxy-2-methylpropyl ((((2R,3S,4R,5S)-5-(4-aminopyrrolo[2,1-f][1,2,4]triazin-7-yl)-2-cyano-3,4-dihydroxytetrahydrofuran-2-yl)methoxy)(phenoxy)phosphoryl)-L-alaninate]
pEC50 (RSV A2; [1]): 6.14
pEC50 (RSV strain A2; [2]): 5.91
pEC50 (DENV2 replicon; [3]): < 4.30
pEC50 (HRV16; [5]): 5.40
